“Also recorded” adds a separate entry of the source. Like-named read-outs stand apart in the source and are kept apart here.
Tests used:
[1] = test system: MA148 human ovarian carcinoma; assay: MA148 tumor growth model in athymic mice; type: in vivo; settings: for tumor growth inhibition: MA148, end of 28 days; for MA148 tumor growth (in words): tumor-bearing mice
Description: Female athymic nude mice (nu/nu, 5-6 weeks old) were used. These mice were purchased from the National Cancer Institute and allowed to acclimatize to local conditions for at least one week. Animals were given water and standard chow ad libitum, and were kept on a 12-hour light/dark cycle. All experiments were approved by the University of Minnesota Research Animal Resources ethical committee. Mice were randomized and split into three groups: 1) human serum albumin (10 mg/kg/day), 2) βpep-25 (10 mg/kg/day) and 3) peptide mimetic agent (5 mg or 10 mg/kg/day). Test compounds were diluted in DMSO and administered using osmotic mini-pumps (Durect, Cupertino, Calif.). Exponentially growing MA148 human ovarian carcinoma cells, kindly provided by Prof. Ramakrishnan (R. P. Dings et al., Cancer Res., 63, 382-385 (2003)) or B16 mouse melanoma cells were cultured in RPM1 1640 medium (Life Technologies, Grand Island, N.Y.). This medium was supplemented with 10% fetal bovine serum and 1% penicillin/streptomycin (Cellgro, Mediatech, Washington, D.C.) at 37° C and 5% CO2. One hundred microliters (100 μL) of this tumor cell suspension (2×10^7 cells/ml) was then injected subcutaneously into the right flank of each mouse. Pumps were implanted into the left flank of mice for subcutaneous administration of compound over a 28-day treatment span.
Two variants of this model were used: prevention and intervention. For the prevention variant, treatment was initiated at the time of inoculation with MA148 cells. For the intervention variant, tumors were allowed to grow to an average size of 50 mm^3 (usually day 7 post inoculation) before treatment was initiated. With either variant, animals were randomized prior to the initiation of treatment. Treatment was administered via osmotic mini-pumps (Durect, Cupertino, Calif.), which were implanted subcutaneously in the left flank of mice. Concentrated solutions of βpep-25 or DBF analogs were formulated such that the 28-day treatment period would be covered by implantation of a single pump. In each study, control groups of animals were administered either PBS or PBS containing human serum albumin.
Female athymic nude mice (nu/nu, 5-6 weeks old) or C57BL/6 male mice were purchased from the National Cancer Institute and allowed to acclimatize to local conditions for at least one week. Animals were provided water and standard chow ad libitum, and were kept on a 12 hour light/dark cycle. All experiments followed protocols approved by the University of Minnesota Research Animal Resources Ethical Committee. Exponentially growing MA148 human ovarian carcinoma cells, kindly provided by Prof. Ramakrishnan (Dings et al., Cancer Res 63, 382-385 (2003)), and B16F10 murine melanoma cells, kindly provided by Prof. Fidler, were cultured in RPM1 1640 medium (Life Technologies, Grand Island, N.Y.) (van der Schaft, et al., Faseb J 16, 1991-1993 (2002)). This medium was supplemented with 10% fetal bovine serum and 1% penicillin/streptomycin (Cellgro, Mediatech, Washington, D.C.) at 37° C. and 5% CO2. 100 μL of this tumor cell suspension (2×10^7 MA148 cells/ml and 2×10^6 B16F10 cells/ml) was then injected subcutaneously into the right hind flank of each mouse (athymic or C57BL/6, respectively).
Tumors were allowed to grow to an average size of at least 50 mm^3 before treatment was initiated, and animals were randomized prior to the initiation of treatment. Treatment was administered in one of two ways: s.c. from osmotic mini-pumps, and i.p. injection. Osmotic mini-pumps (Durect, Cupertino, Calif.) were implanted subcutaneously in the left flank of mice, and concentrated solutions of calixarene analogs or βpep-25 were formulated in PBS containing 30% (v/v) DMSO such that the 14-day or 28-day treatment period would be covered by implantation of a single pump. In each study, control groups of animals were administered either PBS (30% DMSO v/v) or PBS containing human serum albumin to control for protein content. […]

LPS from K. pneumoniae = assay: LPS neutralization assay (Limulus amoebocyte lysate, QCL-1000); type: biochemical, Klebsiella pneumoniae; settings: read-out: IC50 values (μM) for LPS binding, Klebsiella
Outline: (§1)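 LPS (0.04 units per strain) is mixed with compound and Limulus amoebocyte lysate. Proenzyme activation is then followed by chromogenic substrate cleavage and pNA absorbance at 405-410 nm. Dose-response curves are fit sigmoidally to give IC50.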

LPS from S. typhimurium = assay: as above; type: biochemical, Salmonella typhimurium; settings: read-out: IC50 values (μM) for LPS binding, Salmonella
Outline: as §1

bFGF-stimulated HUVEC = assay: EC proliferation, [3H]-thymidine incorporation, bFGF-stimulated HUVEC (Example 48); type: cell-based, human; settings: for IC50: bFGF-stimulated HUVEC, highest dose tested 25 μM; for activity as anti-angiogenic agents, ranking in words: library of 23 compounds
Description: Proliferation is expressed as mean counts per minute (cpm) of quadruplicate cultures in three independent experiments (±SEM). […] Human umbilical vein derived EC (HUVEC) were harvested from normal human umbilical cords by perfusion with 0.125% trypsin/EDTA. Harvested HUVECs were cultured in gelatin coated tissue culture flasks and subcultured 1:3 once a week in culture medium (RPM1-1640 with 20% human serum (HS), supplemented with 2 mM glutamine and 100 U/mL penicillin and 0.1 mg/mL streptomycin). Statistical analysis was performed by using the Student's t-test.

[2] = 10 mg/kg/day s.c. osmotic mini-pump

Row | Compound | tumor growth inhibition ([1]; 2.4 mg/kg/day s.c. osmotic mini-pump) | tumor growth inhibition [1, 2] | MA148 tumor growth (in words) [1] | MA148 tumor growth (in words) ([1]; listed as KM0118 (40)) | IC50 (LPS from K. pneumoniae; Table 2) [µM] | IC50 (LPS from K. pneumoniae; Table 3, errors estimated ±30%) [µM] | IC50 (LPS from S. typhimurium; Table 2) [µM] | IC50 (LPS from S. typhimurium; Table 3, errors estimated ±30%) [µM] | IC50 (bFGF-stimulated HUVEC) [µM] | activity as anti-angiogenic agents, ranking in words (bFGF-stimulated HUVEC) | tumor growth inhibition ([1]; 2.7 mg/kg/day s.c. osmotic mini-pump) | MA148 tumor growth (in words) ([1]; trifluoroacetic acid salt)
1 | CN(C)CCNC(=O)COc1c2cccc1Cc1cccc(c1OCC(=O)NCCN(C)C)Cc1cccc(c1OCC(=O)NCCN(C)C)Cc1cccc(c1OCC(=O)NCCN(C)C)C2 [Compound 40] | about 65% | 81% | inhibition of MA148 tumor growth | significantly inhibited | 1.5 | 1.5 | > 5 | > 5 | 2 | most active as anti-angiogenic agents | – | –
2 | 5,11,17,23-Tetra-tert-butyl-25,27-bis(2-guanidinoethoxy)-26,28-dihydroxy calix[4]arene trifluoroacetic acid salt [Compound 27] | – | about 65% | – | – | – | > 5 | – | 4.4 | 8 | most active as anti-angiogenic agents | about 65% | inhibits MA148 tumor growth; also recorded: significantly inhibited

— patent publication US8642656B2, “Calixarene-based peptide conformation mimetics, methods of use, and methods of making” (priority 2004, dated 2014)
